Experimental data as given in publication PMC10850501 (Nature Communications, 2024).
“Also recorded” adds a separate entry of the source. Where two headings read alike, the source gives them in different places. Peptide text beside a SMILES is read from it.

Legend:
[1] = Ultracentrifugation pellet / solid-state NMR of assemblies; format: physicochemical; settings: 10 mg/mL, 150,000 RCF, 30 minutes, 4 °C
Protocol: To experimentally validate E1:ESBP3 peptide mixtures, solid-state NMR experiments were pursued. ^13C solid-state NMR measurements were conducted using cross-polarization magic angle spinning (^1H-^13C CPMAS) to evaluate sample structural order and structural differences between samples. The peptides were not isotopically enriched, so the ^13C signal was from the 1% natural abundance for ^13C.
After peptide dissolution at 10 mg/mL, the samples were concentrated by ultracentrifugation for 30 minutes in Bruker 3.22 mm NMR rotors at 4 °C and 150,000 RCF in Ultra-clear tubes of SW-41 Ti swinging bucket rotor fitted onto a Beckman Optima XPN-100 centrifuge. A 11.75 T magnet Bruker Avance III HD 500 spectrometer (500 MHz, ^1H NMR Larmor frequency) equipped with a room temperature 3.2 mm Bruker Low-E ^1H/^13C/^15N NMR probe was used for measurements. ^13C chemical shift referencing was conducted using adamantane referenced to tetramethylsilane. 1D ^13C cross-polarization magic angle spinning (CPMAS) spectra were collected using the standard Bruker cp pulse sequence. A 10 kHz magic angle spinning speed was used for all samples. The channels frequency for the optimization of the Hartmann-Hahn condition for ^1H and ^13C are 500.133 MHz and 125.771 MHz, respectively. A recycle delay time of 4 seconds (d1) and dwell time of 5 μs (DW) were used. Acquisition time was set to 10.24 ms. […]

Cytocompatibility (CCK8) = format: cell-based, human; settings: human, A549 cells, read-out: cytocompatibility, normalized to serum free media; for viability at 6 h, 10 µM: 0.01 mM peptide; for viability at 6 h, 100 µM: 0.1 mM peptide; for viability at 6 h, 1000 µM: 1 mM peptide
Protocol: (§1) Cytocompatibility of the peptides was evaluated at 1, 0.1, and 0.01 mM with A549 cells (ATCC CCL-185) cultured in complete media consisting of 90% F-12K and 10% FBS. The A549 cells were utilized after their first passage and seeded at 10,000 cells/well in a 96-well plate for 24 hours. The conditions were prepared in serum-free A549 media and introduced into the wells for 6 hours, after which the condition media were aspirated, the wells were washed once with PBS, and 10 µL of CCK8 was added to 100 µL of PBS[32]. The plate was incubated for 1 hour and read on a Tecan M200 Infinite plate reader at an absorbance of 450 nm with a reference wavelength of 650 nm. The results were analyzed and normalized to the serum-free media control[28],[32],[76].

[2] = system: SARS-CoV-2 live virus (B.1 lineage), Vero E6 cells; format: cell-based
[3] = Daily repeat IV dosing, 10 days (chronic PK/safety); format: in vivo, rat (female Wistar)
Protocol: (§2) Female Wistar rats (225–250 g, 8–12 weeks old) were observed and acclimatized for 2 weeks prior to running the studies. They were housed in a controlled environment with temperature at […] and 40–70% humidity. They were kept in an alternating 12-hour light/dark cycle, and food, and water was provided as pellets ad libitum. Female Wistar Rats were used for the pharmacokinetics and the drug clearance analysis from the blood. The two hydrogels (ESBP2 and ESBP3) at 10 mg/ml concentration were injected into the rats via the lateral tail vein. For subcutaneous implants, the substance was injected between the shoulder blades and above the lumbar vertebrae, 200 μL each, using a 25-gauge needle. The hydrogel bolus was prepared with 0.9% saline and was injected within 1–2 minutes. The volume injected was approximately 1% of the total body weight of the rat, which was calculated prior to the dosing. The initial blood draw was performed for baseline, and the subsequent blood collection was performed from the lateral vein using 25 g butterfly needles.
Female Wistar rats (225–250 g, 8–12 weeks old) were weighed and repeatedly dosed (1% by weight) IV with ESBP2 or ESBP3 daily at 10 mg/mL (~3 mM). Rat blood samples were collected daily prior to injection via tail vein. Post 10 days of treatment, animals were allowed to recover for 10 days and then sacrificed. Plasma was stored and analyzed as above. The body weight was recorded every day prior to the blood collection.

[4] = Acute IV pharmacokinetics; format: in vivo, rat (female Wistar)
Protocol: as §2
Rat blood samples were collected at 0, 5, 15, 30 minutes, and 1, 2, 4, 8, and 24 hours post-injection timepoints for Acute PK and were aliquoted out into heparinized tubes to prevent coagulation and stored on top of ice packs. Blood collected in K2EDTA anticoagulant tubes was processed to plasma frozen via centrifugation at 13000 RCF for 10 minutes at 4 °C and stored at −80 °C till analysis using HPLC. The body weight was recorded every day prior to the blood collection.

A549 cells = experiment: Cytocompatibility (CCK8); format: cell-based, human; settings: human alveolar epithelial A549 cells; 0.01-1 mM
Protocol: as §1

[5] = target: the molecule itself; experiment: co-sedimentation + other: solid-state NMR (1H-13C CPMAS)
[6] = replicate 1, CCK8, 6 h exposure, absorbance 450 nm

Molecule	viability at 6 h, 10 µM (Cytocompatibility (CCK8); replicate 1, CCK8, 6 h) [%]	viability at 6 h, 10 µM (Cytocompatibility (CCK8); replicate 2, CCK8, 6 h) [%]	viability at 6 h, 100 µM (Cytocompatibility (CCK8); replicate 1, CCK8, 6 h) [%]	viability at 6 h, 100 µM (Cytocompatibility (CCK8); replicate 2, CCK8, 6 h) [%]	viability at 6 h, 100 µM (Cytocompatibility (CCK8); replicate 3, CCK8, 6 h) [%]	viability at 6 h, 1000 µM (Cytocompatibility (CCK8); [6]) [%]	viability at 6 h, 1000 µM (Cytocompatibility (CCK8); replicate 2, CCK8, 6 h) [%]	viability at 6 h, 1000 µM (Cytocompatibility (CCK8); replicate 3, CCK8, 6 h) [%]	cytocompatibility, in words (A549 cells)	in vitro live virus inhibition, in words [2]	other results
CC(=O)N[C@@H](CCC(=O)O)C(=O)N[C@@H](CO)C(=O)N[C@@H](CC(C)C)C(=O)N[C@@H](CO)C(=O)N[C@@H](CC(C)C)C(=O)N[C@@H](CO)C(=O)N[C@@H](CC(C)C)C(=O)N[C@@H](CO)C(=O)N[C@@H](CC(C)C)C(=O)N[C@@H](CO)C(=O)N[C@@H](CC(C)C)C(=O)N[C@@H](CO)C(=O)N[C@@H](CC(C)C)C(=O)N[C@@H](CCC(=O)O)C(N)=O [E1] (Ac-ESLSLSLSLSLSLE-NH2)	117	122	111	147	117	169	195	139	–	–	ultracentrifuge pellet (assembly into nanofibers) [1]: centrifuge pellets; Comparative, Average [2]: 65.5306; live virus plaque inhibition, in words [2]: no major differences
Ac-ESLSLSLSLSLSLEGSALEEQLKTFLDKFMHELEDLLYQLAL-NH2 [ESBP2]	94.5	98.3	129	132	196	117	104	94.1	excellent cytocompatibility	inhibition of live virus; also recorded: significantly improved in vitro live virus inhibition	repeat IV dosing safety, in words ([3]; daily IV for 10 days, ~1 w% (10 mg/mL), 225-250 g adult rats): no adverse effect; significant changes in body weight (ESBP3 also animal behavior, adverse events, gross organ morphology) compared to carrier ([3]; daily repeated IV dosing for 10 days, rats): no; eliminated by ([4]; ESBP2 IV bolus through the tail vein, Wistar rats (n=8)): ≤ 8 h; clearance from the circulation (time) ([4]; acute 24-hour single-dose IV bolus PK, rats): 4 to 8 h; Tmax ([4]; female, rat, 10 mg/mL, ESBP2 IV bolus through the tail vein, Wistar rats (n=8), plasma, HPLC, read-out: time of concentration peak (converted)): 30 min; Cmax ([4]; female, rat, plasma, 10 mg/mL, ESBP2 IV bolus, Wistar rats (n=8), at 30 minutes following injection, read-out: observed maximum concentration): 36000 ng/mL; AUC ([4]; female, rat, plasma, 10 mg/mL, ESBP2 IV bolus, Wistar rats (n=8), read-out: area under the curve): 47000 ng·h/mL
CSCC[C@H](NC(=O)[C@H](Cc1ccccc1)NC(=O)[C@H](CCCCN)NC(=O)[C@H](CC(=O)O)NC(=O)[C@H](CC(C)C)NC(=O)[C@H](Cc1ccccc1)NC(=O)[C@@H](NC(=O)[C@H](CCCCN)NC(=O)[C@H](CC(C)C)NC(=O)[C@H](CCC(N)=O)NC(=O)[C@H](CCC(=O)O)NC(=O)[C@H](CCC(=O)O)NC(=O)[C@H](CC(C)C)NC(=O)[C@H](C)NC(=O)[C@H](CO)NC(C)=O)[C@@H](C)O)C(=O)N[C@@H](Cc1c[nH]cn1)C(=O)N[C@@H](CCC(=O)O)C(=O)N[C@@H](CC(C)C)C(=O)N[C@@H](CCC(=O)O)C(=O)N[C@@H](CC(=O)O)C(=O)N[C@@H](CC(C)C)C(=O)N[C@@H](CC(C)C)C(=O)N[C@@H](Cc1ccc(O)cc1)C(=O)N[C@@H](CCC(N)=O)C(=O)N[C@@H](CC(C)C)C(=O)N[C@@H](C)C(=O)N[C@@H](CC(C)C)C(N)=O [SBP2, reference compound] (Ac-SALEEQLKTFLDKFMHELEDLLYQLAL-NH2)	105	92.2	107	104	91.4	85.7	122	150	excellent cytocompatibility	inhibition of live virus	–
Ac-ESLSLSLSLSLSLE-NH2 (also called E-(SL)6-E; E-flanked SAP) [E1 self-assembling peptide (E-SLSLSLSLSLSL-E)]	–	–	–	–	–	–	–	–	–	–	binding result [5]: binds
